Here are results for 13 molecules from patent US11524966B1 (Valo Early Discovery, Inc., priority 2017, dated 2022).

The target of this assay is T1, USP25 (USP25-His6, Boston Biochem E-546) (Homo sapiens, UniProt Q9UHP3).
T1 construct: His6; purchased Boston Biochem E-546
T1 sequence (Q9UHP3 1-1055): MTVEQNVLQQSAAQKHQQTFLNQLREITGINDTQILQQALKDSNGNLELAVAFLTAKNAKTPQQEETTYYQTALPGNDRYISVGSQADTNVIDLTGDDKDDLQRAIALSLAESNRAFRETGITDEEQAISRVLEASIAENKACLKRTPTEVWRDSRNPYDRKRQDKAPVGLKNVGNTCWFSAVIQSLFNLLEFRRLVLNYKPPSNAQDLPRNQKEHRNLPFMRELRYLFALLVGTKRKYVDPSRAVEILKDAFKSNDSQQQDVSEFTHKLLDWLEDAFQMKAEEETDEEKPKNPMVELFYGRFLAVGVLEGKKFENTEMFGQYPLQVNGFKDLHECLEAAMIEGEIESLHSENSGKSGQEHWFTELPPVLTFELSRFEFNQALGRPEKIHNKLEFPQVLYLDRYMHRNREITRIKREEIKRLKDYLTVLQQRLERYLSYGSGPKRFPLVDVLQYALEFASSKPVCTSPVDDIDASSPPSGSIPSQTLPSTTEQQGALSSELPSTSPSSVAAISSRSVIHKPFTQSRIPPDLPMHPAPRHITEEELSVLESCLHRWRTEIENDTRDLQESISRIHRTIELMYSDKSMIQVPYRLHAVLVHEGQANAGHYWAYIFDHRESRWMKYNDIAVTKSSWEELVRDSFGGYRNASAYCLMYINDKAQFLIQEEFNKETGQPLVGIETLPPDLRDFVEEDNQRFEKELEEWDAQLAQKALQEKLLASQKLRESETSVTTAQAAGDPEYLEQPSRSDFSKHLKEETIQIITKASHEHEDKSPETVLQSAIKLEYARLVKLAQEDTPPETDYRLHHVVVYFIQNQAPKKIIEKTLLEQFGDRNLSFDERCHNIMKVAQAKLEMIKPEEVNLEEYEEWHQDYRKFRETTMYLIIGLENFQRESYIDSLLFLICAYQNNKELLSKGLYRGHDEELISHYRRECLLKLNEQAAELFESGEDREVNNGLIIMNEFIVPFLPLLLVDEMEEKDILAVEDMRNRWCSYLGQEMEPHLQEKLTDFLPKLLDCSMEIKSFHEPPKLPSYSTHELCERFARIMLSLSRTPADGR
As to the kind of experiment: Ubiquitin-Rhodamine 110 Assay for USP25 Activity, Example A-2. It counts as biochemical. As to conditions: Ubiquitin-Rhodamine 110 assay, Example A-2; read-out: USP25 A-2 IC50 range. In outline: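 Fluorescence (ex 485, em 535 nm) of cleaved ubiquitin-rhodamine 110 (25 nM, below Km) gave IC50 via 4-parameter logistic fit. Reaction: 45 min, room temperature, citric acid stop, after 30 min compound preincubation with 75 pM USP25-His6 in 20 mM Tris pH 8.0, 3 mM BME, 0.03% BGG, 0.01% Triton X-100; top dose 25 μM.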

A word on the IC50: it is the concentration that gives 50% inhibition. On to `Cc1ccc2c(N)c(C(=O)N[C@H]3COc4cc([C@@H]5CCNC[C@H]5F)ccc4C3)sc2n1` [Example 81, 3-amino-N-((R)-7-((3S,4S)-3-fluoropiperidin-4-yl)chroman-3-yl)-6-methylthieno[2,3-b]pyridine-2-carboxamide], for which the IC50 was in the range of 50 to 200 nM.

`Cc1ccc2c(N)c(C(=O)N[C@H]3COc4cc([C@H]5CCNC[C@H]5F)ccc4C3)sc2n1` [Example 82, 3-amino-N-((R)-7-((3S,4R)-3-fluoropiperidin-4-yl)chroman-3-yl)-6-methylthieno[2,3-b]pyridine-2-carboxamide]: the IC50 lay within 1 to 50 nM.

As for `Cc1ccc2c(N)c(C(=O)N[C@H]3COc4cc([C@@H]5CCNC[C@@H]5F)ccc4C3)sc2n1` [Example 83, 3-amino-N-((R)-7-((3R,4S)-3-fluoropiperidin-4-yl)chroman-3-yl)-6-methylthieno[2,3-b]pyridine-2-carboxamide], the IC50 was 50 to 200 nM.

In the case of `CCn1ccc2cc(C(=O)N[C@H]3COc4c(F)c([C@@H]5CCNC[C@@H]5O)cc(F)c4C3)nnc21` [Example 84, N-((R)-5,8-difluoro-7-((3R,4S)-3-hydroxypiperidin-4-yl)chroman-3-yl)-7-ethyl-7H-pyrrolo[2,3-c]pyridazine-3-carboxamide], the 50% inhibitory concentration (IC50) was greater than 2000 nM.

Take `CCn1ccc2cc(C(=O)N[C@H]3COc4c(F)c([C@H]5CCNC[C@H]5O)cc(F)c4C3)nnc21` [Example 85, N-((R)-5,8-difluoro-7-((3S,4R)-3-hydroxypiperidin-4-yl)chroman-3-yl)-7-ethyl-7H-pyrrolo[2,3-c]pyridazine-3-carboxamide]: the half-inhibitory concentration (IC50) is greater than 2000 nM.

Consider `CO[C@@H]1CN(c2cc(F)c3c(c2F)OC[C@H](NC(=O)c2sc4nc(C)ccc4c2N)C3)C[C@H]1N` [Example 86], for which the half-maximal inhibitory concentration (IC50) was 200 to 2000 nM.

As for `CO[C@H]1CN(c2cc(F)c3c(c2F)OC[C@H](NC(=O)c2sc4nc(C)ccc4c2N)C3)C[C@@H]1N` [Example 87, 3-amino-N-((R)-7-((3S,4S)-3-amino-4-methoxypyrrolidin-1-yl)-5,8-difluorochroman-3-yl)-6-methylthieno[2,3-b]pyridine-2-carboxamide], the IC50 was 200 to 2000 nM.

`Cc1cc(C(F)F)c2c(N)c(C(=O)N[C@H]3COc4cc(N5CC6CNCC(C5)O6)ccc4C3)sc2n1` [Example 88, N-((3R)-7-(9-oxa-3,7-diazabicyclo[3.3.1]nonan-3-yl)chroman-3-yl)-3-amino-4-(difluoromethyl)-6-methylthieno[2,3-b]pyridine-2-carboxamide]: the 50% inhibitory concentration (IC50) was in the range of 1 to 50 nM.

In the case of `O=C(N[C@H]1COc2c(F)c(N3CC4CCC(C3)N4)cc(F)c2C1)c1cnc2c(c1)[C@@H]1C[C@@H]1CN2` [Example 89, (1aS, 7bR)-N-((3R)-7-(3 8-diazabicyclo[3.2.1]octan-3-yl)-5,8-difluorochroman-3-yl)-1a,2,3,7b-tetrahydro-1H-cyclopropa[c][1,8]naphthyridine-6-carboxamide], the concentration for half-maximal inhibition (IC50) was in the range of 50 to 200 nM.

For `O=C(N[C@H]1COc2c(F)c(N3CC4CCC(C3)N4)cc(F)c2C1)c1cnc2c(c1)[C@H]1C[C@H]1CN2` [Example 90, (1aR,7bS)-N-((3R)-7-(3,8-diazabicyclo[3.2.1]octan-3-yl)-5,8-difluorochroman-3-yl)-1a,2,3,7b-tetrahydro-1H-cyclopropa[c][1,8]naphthyridine-6-carboxamide], the IC50 was 200 to 2000 nM.

In the case of `CO[C@@H]1CN(c2ccc3c(c2F)OC[C@H](NC(=O)c2sc4nc(C)ccc4c2N)C3)C[C@H]1N` [Example 91, 3-amino-N-[(3R )-7-[(3R,4R)-3-amino-4-methoxypyrrolidin-1-yl]-8-fluoro-3,4-dihydro-2H-1-benzopyran-3-yl]-6-methylthieno[2,3-b]pyridine-2-carboxamide], the IC50 lay within 200 to 2000 nM.

Turning to `CO[C@H]1CN(c2ccc3c(c2F)OC[C@H](NC(=O)c2sc4nc(C)ccc4c2N)C3)C[C@@H]1N` [Example 92, 3-amino-N-[(3R)-7-[(3S,4S)-3-amino-4-methoxypyrrolidin-1-yl]-8-fluoro-3,4-dihydro-2H-1-benzopyran-3-yl]-6-methylthieno[2,3-b]pyridine-2-carboxamide], the IC50 was in the range of 200 to 2000 nM.

With `CO[C@@H]1CN(c2cc3c(cc2F)C[C@@H](NC(=O)c2sc4nc(C)ccc4c2N)CO3)C[C@H]1N` [Example 93, 3-amino-N-[(3R)-7-[(3R,4R)-3-amino-4-methoxypyrrolidin-1-yl]-6-fluoro-3,4-dihydro-2H-1-benzopyran-3-yl]-6-methylthieno[2,3-b]pyridine-2-carboxamide], the 50% inhibitory concentration (IC50) was 200 to 2000 nM.
